From ChEMBL document CHEMBL5338765, “Discovery of Potent and Wild-Type-Sparing Fourth-Generation EGFR Inhibitors for Treatment of Osimertinib-Resistance NSCLC” (J Med Chem, 2023)

Columns and labels:
in vivo [1] = details: Sprague-Dawley, rat, iv, 1 mg/kg
in vivo [2] = details: Sprague-Dawley, rat, po, 10 mg/kg
in vivo [3] = details: Sprague-Dawley, rat, iv, 1 mg/kg; remark: listed apart in the source
in vivo [4] = details: Sprague-Dawley, rat, po, 10 mg/kg; remark: listed apart in the source
in vivo [5] = details: Sprague-Dawley, rat, iv, 1 mg/kg; remark: listed apart in the source
in vivo [6] = details: Sprague-Dawley, rat, po, 10 mg/kg; remark: listed apart in the source
in vivo [7] = details: Sprague-Dawley, rat, iv, 1 mg/kg; remark: listed apart in the source
in vivo [8] = details: Sprague-Dawley, rat, po, 10 mg/kg; remark: listed apart in the source
in vivo [9] = details: Sprague-Dawley, rat, iv, 1 mg/kg; remark: listed apart in the source
in vivo [10] = details: Sprague-Dawley, rat, po, 10 mg/kg; remark: listed apart in the source
in vivo [11] = details: Sprague-Dawley, rat, iv, 1 mg/kg; remark: listed apart in the source
in vivo [12] = details: Sprague-Dawley, rat, po, 10 mg/kg; remark: listed apart in the source
in vivo [13] = details: Sprague-Dawley, rat, po, 10 mg/kg; remark: listed apart in the source

CCS(=O)(=O)n1cc(-c2nc(Nc3ccc4c(ccn4CCN(C)C)c3)ncc2C(F)(F)F)c2ccccc21
Cmax at 24 h (in vivo [1]): 130 ng/mL | Cmax at 24 h (in vivo [2]): 54.7 ng/mL | AUC(0-inf) at 24 h (in vivo [3]): 242 ng·h/mL | AUC(0-inf) at 24 h (in vivo [4]): 678 ng·h/mL | MRT inf at 24 h (in vivo [5]): 4.33 h | MRT inf at 24 h (in vivo [6]): 9.62 h | Tmax at 24 h (in vivo [7]): 4.8 min | Tmax at 24 h (in vivo [8]): 8 h | half-life at 24 h (in vivo [9]): 3.67 h | half-life at 24 h (in vivo [10]): 5.37 h | clearance at 24 h (in vivo [11]): 70.2 mL/min/kg | CL/F at 24 h (in vivo [12]): 278 mL/min/kg | bioavailability at 24 h (in vivo [13]): 28.1%
